Test results taken from patent US5374722A, “Bridged benzazepines” (Schering Corporation, priority 1993, dated 1994).
Where a name gives a salt, the structure may show the parent alone. Read-outs that look alike come from different tables or passages of the source.

Legend:
D-1 receptor = target: T1, D-1 receptor (Rattus norvegicus, UniProt P18901); assay: Competitive inhibition assay: displacement of tritiated Compound B* (D-1) from rat striatal tissue; type: binding, rat (male Sprague-Dawley)
T1 construct: Stdatal tissue is excised, pooled, and homogenized; from tissue; host or cells: striatum of male Sprague-Dawley rats (washed homogenate pellet)

D-2 receptor = target: T2, D-2 receptor (Rattus norvegicus, UniProt P61169); assay: Competitive inhibition assay: displacement of 3H-spiperone (D-2) from rat striatal tissue; type: binding, rat (male Sprague-Dawley)
T2 construct: Stdatal tissue is excised, pooled, and homogenized; from tissue; host or cells: striatum of male Sprague-Dawley rats (washed homogenate pellet)

[1] = system: conditioned avoidance response (CAR) in rats; assay: animal or person; type: in vivo; settings: Rattus norvegicus
[2] = tritiated compound B 0.3 nM, rat striatal tissue, pH 7.4, 37° C., 15 min
[3] = 3H-spiperone 0.2 nM, rat striatal tissue, pH 7.4, 37° C., 15 min
[4] = po, 1 h, read-out: Rat CAR MED Oral (minimal effective dose)
[5] = sc, 0.5 h, read-out: Rat CAR MED sc (minimal effective dose)

T2 sequence (P61169 whole entry): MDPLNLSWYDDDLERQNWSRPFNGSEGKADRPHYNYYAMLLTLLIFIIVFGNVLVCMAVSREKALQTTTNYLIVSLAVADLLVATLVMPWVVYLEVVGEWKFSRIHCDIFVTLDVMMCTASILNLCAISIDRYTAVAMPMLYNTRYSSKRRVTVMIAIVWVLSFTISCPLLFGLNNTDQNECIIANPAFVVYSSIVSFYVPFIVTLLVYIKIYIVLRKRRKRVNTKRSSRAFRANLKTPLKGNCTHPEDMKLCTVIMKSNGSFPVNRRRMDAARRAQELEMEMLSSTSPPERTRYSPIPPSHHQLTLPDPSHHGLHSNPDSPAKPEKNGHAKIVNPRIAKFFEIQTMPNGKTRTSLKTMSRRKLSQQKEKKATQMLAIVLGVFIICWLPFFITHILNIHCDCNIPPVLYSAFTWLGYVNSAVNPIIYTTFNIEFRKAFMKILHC
T1 sequence (P18901 whole entry): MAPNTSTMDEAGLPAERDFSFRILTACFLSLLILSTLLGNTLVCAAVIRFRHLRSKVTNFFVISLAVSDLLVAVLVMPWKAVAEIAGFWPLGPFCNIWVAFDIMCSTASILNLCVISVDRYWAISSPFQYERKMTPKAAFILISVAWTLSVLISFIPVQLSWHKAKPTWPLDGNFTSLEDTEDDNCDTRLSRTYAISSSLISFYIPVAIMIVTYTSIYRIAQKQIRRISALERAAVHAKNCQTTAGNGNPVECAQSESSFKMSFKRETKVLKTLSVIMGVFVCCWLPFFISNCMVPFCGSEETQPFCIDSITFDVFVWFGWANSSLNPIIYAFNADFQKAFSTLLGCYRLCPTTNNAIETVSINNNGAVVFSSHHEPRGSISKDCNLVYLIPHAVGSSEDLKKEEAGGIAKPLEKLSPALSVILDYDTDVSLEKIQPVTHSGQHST

For `CN1CCc2ccc(O)c3c2C(CCC3)C1` (stereo not shown) [CH H 1 H H H H H, 2-Methyl-1,2,3,4,8,9, 10,10a-OctahydroNaphth[1,8-cd]azepine-7-ol], the Ki (D-1 receptor; [2]) was 350 nM and the Ki (D-2 receptor; [3]) was 3350 nM.
Compound `CC1CCC2CN(C)CCc3cc(Cl)c(O)c1c32` (stereo not shown) [Cl H 1 H CH3 H H H, 6-chloro-2,8-dimethyl-1.2.3.4.8.9.10.10a-octahydro-naphth [1.8-c.d]azepin-7-ol] has a Ki (D-1 receptor) of 42 nM, a minimal effective dose [1, 4] of 3 mg/kg and a minimal effective dose [1, 5] of 0.1 mg/kg. For the same compound, the Ki (D-2 receptor; [3]) was 248 nM.
Work on `CN1CCc2cc(Cl)c(O)c3c2C(CCC3O)C1` (stereo not shown) [Cl H 1 H HO H H H] yielded a Ki (D-1 receptor; [2]) of 110 nM and a Ki (D-2 receptor; [3]) of 6590 nM.
`CN1CCc2cc(Cl)c(OC(=O)N(C)C)c3c2C(CCC3)C1` (stereo not shown) [Cl H 1 Me2NCO H H H H] gave a Ki (D-1 receptor) of 1010 nM, a minimal effective dose [1, 4] of 10 mg/kg and a minimal effective dose [1, 5] of 3 mg/kg. It also gave a Ki (D-2 receptor) of 8010 nM.
`COc1cc(NC(=O)Oc2c(Cl)cc3c4c2CCCC4CN(C)CC3)cc(OC)c1` (stereo not shown) [Cl H 1 3,5-(MeO)2PhNHCO H H H H] was tested, and the Ki (D-1 receptor) was 6.6 nM, the minimal effective dose [1, 4] was 10 mg/kg and the Ki (D-2 receptor) was 405 nM.
Compound `CC1=Cc2c(O)c(Cl)cc3c2C(C1)CN(C)CC3` (stereo not shown) [Cl H 1 H H -- CH3 --] has a Ki (D-1 receptor) of 32 nM, a minimal effective dose [1, 4] of over 30 mg/kg and a Ki (D-2 receptor; [3]) of 264 nM.
In the case of `CC(C)c1ccc(NC(=O)Oc2ccc3c4c2C(C)CCC4CN(C)CC3)cc1` (stereo not shown) [H H 1 4-iPrPhNHCO CH3 H H H], the Ki (D-1 receptor) is reported as 134 nM, the minimal effective dose [1, 4] is reported as over 30 mg/kg and the Ki (D-2 receptor) is reported as 420 nM.
`CN1CCc2cc(Cl)c(O)c3c2C(CCC3c2ccccc2)C1` (stereo not shown) [Cl H 1 H C6H5 H H H] was tested, and the Ki (D-1 receptor; [2]) was 2080 nM, the minimal effective dose [1, 4] was over 30 mg/kg and the minimal effective dose [1, 5] was over 10 mg/kg. For the same compound, the Ki (D-2 receptor; [3]) was 42800 nM.
`CC1CCC2CN(C)CCc3cc(Cl)c(O)c1c32` (stereo not shown) [Cl H 1 H H CH3 H H, 6-chloro-2,8-dimethyl-1.2.3.4.8.9.10.10a-octahydro-naphth [1.8-c.d]azepin-7-ol] showed a Ki (D-1 receptor) of 51 nM and a Ki (D-2 receptor; [3]) of 389 nM.
`Cc1cc2c3c(c1O)CCCC3CN(C)CC2` (stereo not shown) [CH3 H 1 H H H H H, 2,6-Dimethyl-1,2,3,4,8,9,1 0,10a-Octahydro-Naphth[1,8. cd]azepine-7-ol, hydrochloride] was tested, and the Ki (D-1 receptor) was 37 nM, the minimal effective dose [1, 4] was at most 30 mg/kg and the Ki (D-2 receptor; [3]) was 1300 nM.
`CN1CCc2cc(Cl)c(O)c3c2C(CCC3)C1` (stereo not shown) [Cl H 1 H H H H H, 6-Chloro-2-Methyl-1,2,3,4,8,9, 10, 10a-octahydro-naphth [1,8-cd]azepin-7-ol] was tested, and the Ki (D-1 receptor) was 6.2 nM, the minimal effective dose [1, 4] was over 30 mg/kg and the minimal effective dose [1, 5] was 0.3 mg/kg. It also gave a Ki (D-2 receptor; [3]) of 500 nM.
Work on `CN1CCc2c(Cl)c(Cl)c(O)c3c2C(CCC3)C1` (stereo not shown) [Cl Cl 1 H H H H H, 5,6-Dichloro-2-Methyl-1,2,3,4,8,9, 10,10a-octahydronapth[1,8-cd]azepin-7-ol] yielded a Ki (D-1 receptor) of 1.1 nM, a minimal effective dose [1, 4] of 10 mg/kg and a Ki (D-2 receptor; [3]) of 230 nM.
`CC1Cc2c(O)c(Cl)cc3c2C(C1)CN(C)CC3` (stereo not shown) [Cl H 1 H H H CH3 H] gave a Ki (D-1 receptor) of 4.5 nM and a Ki (D-2 receptor; [3]) of 250 nM.
Work on `CC(C)c1ccc(NC(=O)Oc2c(Cl)cc3c4c2CCCC4CN(C)CC3)cc1` (stereo not shown) [Cl H 1 4-i-PrPhNHCO H H H H, 6-Chloro-7-[(4-Isoporpylphenylamino) Carbonyloxy]-2-Methyl-1,2,3,4,8,9,10,10a-Octahydro-Naphth]1,8-cd]azepine, hydrochloride] yielded a Ki (D-1 receptor) of 51 nM, a minimal effective dose [1, 4] of at most 30 mg/kg and a Ki (D-2 receptor) of 680 nM.
With `CN1CCc2cc(Cl)c(O)c3c2C(C1)CC3(C)C` (stereo not shown) [Cl H 0 H CH3 CH3 H H] the Ki (D-1 receptor) was 65 nM, the minimal effective dose [1, 5] was 3 mg/kg and the Ki (D-2 receptor; [3]) was 147 nM.
In the case of `COc1cc(NC(=O)Oc2ccc3c4c2C(C)CCC4CN(C)CC3)cc(OC)c1` (stereo not shown) [H H 1 3,5-(MeO)2PhNHCO CH3 H H H], the Ki (D-1 receptor) is reported as 35 nM, the minimal effective dose [1, 4] is reported as over 30 mg/kg and the Ki (D-2 receptor) is reported as 337 nM.
In the case of `CN1CCc2cc(Cl)c(O)c3c2C(CCC3(C)C)C1` (stereo not shown) [Cl H 1 H CH3 CH3 H H, 6-Chloro-2,8.8-Trimethyl-1,2,3,4,8,9,10,10a-Octahydro-Naphth [1,8-cd]azepin-7-ol], the Ki (D-1 receptor; [2]) is reported as 256 nM, the minimal effective dose [1, 4] is reported as under 30 mg/kg and the minimal effective dose [1, 5] is reported as over 10 mg/kg. It also gave a Ki (D-2 receptor; [3]) of 218 nM.
